Experimental data published in patent US11040954B1, “CXCR3 receptor agonists” (RECEPTOS LLC, priority 2016, dated 2021).

Target: T1, CXCR3 (Homo sapiens, UniProt P49682)
T1 construct: host or cells: CHO-K1 (cAMP Hunter CHOK1 CXCR3 Gi cell line)
T1 sequence (P49682 1-368): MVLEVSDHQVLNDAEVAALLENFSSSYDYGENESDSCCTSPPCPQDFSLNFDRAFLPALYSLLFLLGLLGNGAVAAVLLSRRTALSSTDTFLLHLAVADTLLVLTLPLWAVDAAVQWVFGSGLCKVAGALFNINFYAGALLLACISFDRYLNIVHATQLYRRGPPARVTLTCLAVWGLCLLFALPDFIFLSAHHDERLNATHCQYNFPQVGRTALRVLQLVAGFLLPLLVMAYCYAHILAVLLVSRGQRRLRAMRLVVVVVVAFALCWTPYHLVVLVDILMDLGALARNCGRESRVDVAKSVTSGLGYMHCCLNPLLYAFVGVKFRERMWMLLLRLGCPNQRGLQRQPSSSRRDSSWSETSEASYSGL
Test: CXCR3 cAMP agonist assay (cAMP Hunter CHOK1 CXCR3 Gi cell line, forskolin-stimulated, HitHunter cAMP detection)
Assay type: cell-based
Conditions: cAMP Hunter CHOK1 CXCR3 Gi cells, 20 μM forskolin, 30 minutes; read-out: Activity (CXCR3 cAMP agonist assay compound EC50)
Summary of the method: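 Agonist activity was measured as suppression of forskolin (20 μM)-induced cAMP, read by luminescent enzyme-fragment complementation with a cAMP standard curve and CXCL11 defining full efficacy. Assay used 50,000 CXCR3 Gi CHOK1 cells/well in pH 7.4 HEPES-buffered HBSS with 0.1% BSA, compound 0-10 μM over 12 points, 30 min incubation.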

CC(C)(C)C1CCCCN1C(=O)CCC(=O)N1Cc2ccccc2C[C@H]1C(=O)N[C@@H](CCN)C(=O)Nc1ccc(Cl)c(Cl)c1F (stereo partly shown) [Compound 15-32]
EC50: 0.25 to 0.5 µM

NCC[C@H](NC(=O)[C@@H]1Cc2ccccc2CN1C(=O)CCC(=O)N1CCC2(CC2)C1)C(=O)Nc1ccc(Cl)c(Cl)c1F [Compound 15-46]
EC50: < 0.05 µM

Cc1c(Cl)ccc(NC(=O)C(CCN2CCC(O)CC2)NC(=O)[C@@H]2Cc3ccccc3CN2C(=O)CCC(=O)c2ccccc2)c1Cl (mixture of isomers) [Compound 25-1, (3S)—N-(1-((2,4-dichloro-3-methylphenyl)amino)-4-(4-hydroxypiperidin-1-yl)-1-oxobutan-2-yl)-2-(4-oxo-4-phenylbutanoyl)-1,2,3,4-tetrahydroisoquinoline-3-carboxamide]
EC50: 0.05 to 0.25 µM

Cc1cc(NC(=O)[C@H](CCN)NC(=O)[C@@H]2Cc3ccccc3CN2C(=O)CCC(=O)N2CCC3CCCCC32)ccc1Cl (stereo partly shown) [Compound 12-95]
EC50: < 0.05 µM

Cc1cc(NC(=O)[C@H](CCN)NC(=O)[C@@H]2Cc3ccccc3CN2C(=O)CCC(=O)N2[C@H](C)CCC[C@@H]2C)ccc1Cl [Compound 12-43]
EC50: < 0.05 µM

Cc1cc(NC(=O)[C@H](CCN)NC(=O)[C@@H]2Cc3ccccc3CN2C(=O)CCC(=O)N2CCCC3(CCC3)C2)cc(C)c1Cl [Compound 10-11]
EC50: < 0.05 µM

Cc1ccc(F)c(NC(=O)[C@H](CCN)NC(=O)[C@@H]2Cc3ccccc3CN2C(=O)CCC(=O)c2ccccc2)c1 [Compound 2-33]
EC50: < 0.05 µM

NCC[C@H](NC(=O)[C@@H]1Cc2ccccc2CN1C(=O)CCC(=O)c1ccccc1)C(=O)Nc1ccc(F)c(C(F)(F)F)c1 [Compound 2-14]
EC50: < 0.05 µM

Cc1cc(NC(=O)[C@H](CCN)NC(=O)[C@@H]2Cc3ccccc3CN2C(=O)CCC(=O)N2CC(C(C)(C)O)C2)ccc1Cl [Compound 12-22]
EC50: < 0.05 µM

Cc1cccc(F)c1NC(=O)[C@H](CCN)NC(=O)[C@@H]1Cc2ccccc2CN1C(=O)CCC(=O)c1ccccc1 [Compound 14-5]
EC50: 0.25 to 0.5 µM

CN(C(=O)CCC(=O)N1Cc2ccccc2C[C@H]1C(=O)N[C@@H](CCN)C(=O)Nc1ccc(Cl)c(Cl)c1F)C1CC1 [Compound 15-41]
EC50: > 0.5 µM

COCCN(C)C(=O)CCC(=O)N1Cc2ccccc2C[C@H]1C(=O)N[C@@H](CCN)C(=O)Nc1ccc(Cl)c(C)c1 [Compound 12-113]
EC50: 0.25 to 0.5 µM

Cc1cccc(NC(=O)C2(NC(=O)[C@@H]3Cc4ccccc4CN3C(=O)CCC(=O)c3ccccc3)CCNCC2)c1Cl [Compound 11-1, (S)—N-(4-((2-chloro-3-methylphenyl)carbamoyl)piperidin-4-yl)-2-(4-oxo-4-phenylbutanoyl)-1,2,3,4-tetrahydroisoquinoline-3-carboxamide]
EC50: > 0.5 µM

O=C(NC1(C(=O)Nc2ccc(Cl)c(Cl)c2F)CCNCC1)[C@@H]1Cc2ccccc2CN1C(=O)CCC(=O)N1CCCC2(CCC2)C1 [Compound 12-128]
EC50: < 0.05 µM

NCC[C@H](NC(=O)[C@@H]1Cc2ccccc2CN1C(=O)CCC(=O)c1ccccc1)C(=O)Nc1ccc(Cl)c(F)c1 [Compound 2-12]
EC50: 0.25 to 0.5 µM

CC1(C)CCCCN1C(=O)CCC(=O)N1Cc2ccc(F)cc2C[C@H]1C(=O)N[C@@H](CCN)C(=O)Nc1ccc(Cl)c(Cl)c1F [Compound 34-1, (S)—N—((S)-4-amino-1-((3,4-dichloro-2-fluorophenyl)amino)-1-oxobutan-2-yl)-2-(4-(2,2-dimethylpiperidin-1-yl)-4-oxobutanoyl)-6-fluoro-1,2,3,4-tetrahydroisoquinoline-3-carboxamide]
EC50: < 0.05 µM

Cc1cc(NC(=O)[C@H](CCN)NC(=O)[C@@H]2Cc3ccccc3CN2C(=O)CCC(=O)c2ccccc2)ncc1Cl [Compound 4-16]
EC50: < 0.05 µM

NCC[C@H](NC(=O)[C@@H]1Cc2ccccc2CN1C(=O)CCC(=O)c1ccccc1)C(=O)Nc1ccc2c(c1)C(=O)CC2 [Compound 2-68]
EC50: 0.05 to 0.25 µM

Cc1cc(NC(=O)[C@H](CCN(C(C)C)C(C)C)NC(=O)[C@@H]2Cc3ccccc3CN2C(=O)CCC(=O)c2ccccc2)ccc1Cl [Compound 3-7]
EC50: < 0.05 µM

Cc1cccc(NC(=O)[C@H](CCN)NC(=O)[C@@H]2Cc3ccccc3CN2C(=O)CCC(=O)c2ccccc2)c1Cl [Compound 14-6]
EC50: < 0.05 µM

CCc1cc(Cl)c(C)cc1NC(=O)[C@H](CCN)NC(=O)[C@@H]1Cc2ccccc2CN1C(=O)CCC(=O)c1ccccc1 [Compound 2-41]
EC50: 0.05 to 0.25 µM

Cc1cc(NC(=O)[C@H](CCN)NC(=O)[C@@H]2Cc3ccccc3CN2C(=O)CCC(=O)N2CCC[C@H]2C)ccc1Cl [Compound 12-46]
EC50: < 0.05 µM

CN(C(=O)CCC(=O)N1Cc2ccccc2C[C@H]1C(=O)NC1(C(=O)Nc2ccc(Cl)c(Cl)c2F)CCNCC1)C(C)(C)C [Compound 12-125]
EC50: 0.05 to 0.25 µM

Cc1cc(NC(=O)[C@H](CCN2CCC(O)CC2)NC(=O)[C@@H]2Cc3ccccc3CN2C(=O)CCC(=O)c2ccccc2)ccc1Cl [Compound 17-1, (S)—N—((S)-1-((4-chloro-3-methylphenyl)amino)-4-(4-hydroxypiperidin-1-yl)-1-oxobutan-2-yl)-2-(4-oxo-4-phenylbutanoyl)-1,2,3,4-tetrahydroisoquinoline-3-carboxamide]
EC50: < 0.05 µM

Cc1cc(NC(=O)[C@H](CCN)NC(=O)[C@@H]2Cc3ccccc3CN2C(=O)CCC(=O)N2CCCC2C#N)ccc1Cl (stereo partly shown) [Compound 12-77]
EC50: < 0.05 µM

CC1CN(C(=O)CCC(=O)N2Cc3ccccc3C[C@H]2C(=O)N[C@@H](CCN)C(=O)Nc2ccc(Cl)c(Cl)c2F)CCN1C (stereo partly shown) [Compound 15-5]
EC50: < 0.05 µM

Cc1cc(NC(=O)[C@H](CCN)NC(=O)[C@@H]2Cc3ccccc3CN2C(=O)CCC(=O)N2CCN(S(C)(=O)=O)CC2)ccc1Cl [Compound 12-15]
EC50: 0.05 to 0.25 µM

NCC[C@H](NC(=O)[C@@H]1Cc2ccccc2CN1C(=O)CCC(=O)c1ccccc1)C(=O)Nc1cccc(Cl)c1C(F)(F)F [Compound 14-16]
EC50: 0.25 to 0.5 µM

CC1(C)COCCN1C(=O)CCC(=O)N1Cc2ccccc2C[C@H]1C(=O)NC1(C(=O)Nc2ccc(Cl)c(Cl)c2F)CCNCC1 [Compound 12-127]
EC50: 0.05 to 0.25 µM

NCC[C@H](NC(=O)[C@@H]1Cc2ccccc2CN1C(=O)CCC(=O)N1CCC2(CC1)COC2)C(=O)Nc1ccc(Cl)c(Cl)c1F [Compound 15-12]
EC50: 0.25 to 0.5 µM

Cc1cc(NC(=O)[C@H](CCN)NC(=O)[C@@H]2Cc3ccccc3CN2C(=O)CCC(=O)N2CCCC[C@@H]2C)ccc1Cl [Compound 12-56]
EC50: < 0.05 µM

COc1cc(F)c(F)cc1NC(=O)[C@H](CCN)NC(=O)[C@@H]1Cc2ccccc2CN1C(=O)CCC(=O)c1ccccc1 [Compound 2-70]
EC50: 0.25 to 0.5 µM

Cc1cccc(NC(=O)[C@H](CCN)NC(=O)[C@@H]2Cc3ccccc3CN2C(=O)CCC(=O)c2ccccc2)c1O [Compound 2-50]
EC50: 0.25 to 0.5 µM

CC(C)C1CCN(C(=O)CCC(=O)N2Cc3ccccc3C[C@H]2C(=O)N[C@@H](CCN)C(=O)Nc2ccc(Cl)c(Cl)c2F)C1 (stereo partly shown) [Compound 15-9]
EC50: < 0.05 µM

Cc1cc(NC(=O)[C@H](CCN)NC(=O)[C@@H]2Cc3ccccc3CN2C(=O)CCC(=O)N2CCC(C#N)CC2)ccc1Cl [Compound 12-44]
EC50: < 0.05 µM

Cc1cccc(NC(=O)[C@H](CCN)NC(=O)[C@@H]2Cc3ccccc3CN2C(=O)CCC(=O)c2ccccc2)c1F [Compound 2-32]
EC50: < 0.05 µM

Cc1cc(NC(=O)[C@H](CCNCC(C)C)NC(=O)[C@@H]2Cc3ccccc3CN2C(=O)CCC(=O)c2ccccc2)ccc1Cl [Compound 8-1, (S)—N—((S)-1-((4-chloro-3-methylphenyl)amino)-4-(isobutylamino)-1-oxobutan-2-yl)-2-(4-oxo-4-phenylbutanoyl)-1,2,3,4-tetrahydroisoquinoline-3-carboxamide]
EC50: < 0.05 µM

Cc1cc(NC(=O)[C@H](CNC(=N)N)NC(=O)[C@@H]2Cc3ccccc3CN2C(=O)CCC(=O)c2ccccc2)ccc1Cl [Compound 9-1, (S)—N—((S)-1-((4-chloro-3-methylphenyl)amino)-3-guanidino-1-oxopropan-2-yl)-2-(4-oxo-4-phenylbutanoyl)-1,2,3,4-tetrahydroisoquinoline-3-carboxamide]
EC50: < 0.05 µM

CCc1cccc(NC(=O)[C@H](CCN)NC(=O)[C@@H]2Cc3ccccc3CN2C(=O)CCC(=O)c2ccccc2)c1OC [Compound 13-5]
EC50: 0.05 to 0.25 µM

Cc1cc(NC(=O)[C@H](CCN)NC(=O)[C@@H]2Cc3ccccc3CN2C(=O)CCC(=O)c2ccccc2)cc(C)c1Cl [Compound 2-39]
EC50: < 0.05 µM

CC1(C)CCCN1C(=O)CCC(=O)N1Cc2ccccc2C[C@H]1C(=O)N[C@@H](CCN)C(=O)Nc1ccc(Cl)c(Cl)c1F [Compound 15-4]
EC50: < 0.05 µM

Cc1cc(NC(=O)[C@H](CCN)NC(=O)[C@@H]2Cc3ccccc3CN2C(=O)CCC(=O)N2CCOCC2(C)C)ccc1Cl [Compound 12-23]
EC50: < 0.05 µM

CC[C@@H]1CCN(C(=O)CCC(=O)N2Cc3ccccc3C[C@H]2C(=O)N[C@@H](CCN)C(=O)Nc2ccc(Cl)c(C)c2)C1 [Compound 12-154]
EC50: < 0.05 µM

CC(C)(C)CNC(=O)CCC(=O)N1Cc2ccccc2C[C@H]1C(=O)NC1(C(=O)Nc2ccc(Cl)c(Cl)c2F)CCNCC1 [Compound 12-129]
EC50: 0.25 to 0.5 µM

Cc1cc(NC(=O)[C@H](CCN)NC(=O)[C@@H]2Cc3ccccc3CN2C(=O)CCC(=O)N2CC3CCCCC3C2)ccc1Cl (stereo partly shown) [Compound 12-55]
EC50: < 0.05 µM

COc1cc(Cl)ccc1NC(=O)[C@H](CCN)NC(=O)[C@@H]1Cc2ccccc2CN1C(=O)CCC(=O)c1ccccc1 [Compound 13-4]
EC50: 0.05 to 0.25 µM
